Assay results as given in patent US10093713B2, “GIP-GLP-1 dual agonist compounds and methods” (priority 2013, dated 2018).
Like-named read-outs stand apart in the source and are kept apart here. *1 amine or outer side, *2 acyl side, *3 side chain or, on linkers, in order; H or OH if unused. Where a SMILES comes first, the peptide text is derived from it. Side-chain parts run from the residue outwards. [ ]: non-standard residue; d: D form. The star is where a group is joined. C18 diacid = O=C(O)CCCCCCCCCCCCCCCCC(=O)*; γGlu = O=C(O)[C@H](CCC(=O)[*:2])N[*:1]; Dap = NC[C@H](N)C(=O)O; AEEA = NCCOCCOCC(=O)O; Aib = CC(C)(N)C(=O)O

Assays:
human GLP-1 R = biological target: T1, human GLP-1 R (Homo sapiens, UniProt P43220); experiment: Human GLP-1 receptor (GLP-1 R) activity assay, cAMP induction (AlphaScreen) in HEK293 cells; format: cell-based; conditions: read-out: hGLP1-R cAMP EC50 average value
T1 construct: expressed in transfected cells
T1 sequence (P43220 24-463): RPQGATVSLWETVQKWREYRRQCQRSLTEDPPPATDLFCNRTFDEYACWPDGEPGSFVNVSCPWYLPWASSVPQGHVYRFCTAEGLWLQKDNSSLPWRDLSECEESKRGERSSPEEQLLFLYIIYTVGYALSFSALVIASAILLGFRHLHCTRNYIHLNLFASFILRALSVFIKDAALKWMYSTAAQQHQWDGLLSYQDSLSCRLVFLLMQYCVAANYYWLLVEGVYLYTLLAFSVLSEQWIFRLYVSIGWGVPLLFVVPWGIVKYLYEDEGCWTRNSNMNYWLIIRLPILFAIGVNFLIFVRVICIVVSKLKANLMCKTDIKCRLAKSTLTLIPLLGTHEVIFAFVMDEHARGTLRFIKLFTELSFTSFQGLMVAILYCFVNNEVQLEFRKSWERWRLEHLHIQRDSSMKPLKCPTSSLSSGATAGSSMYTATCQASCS
Experimental: (§1) Human GIP Receptor (GIP R) and GLP-1 Receptor (GLP-1 R) Activity Assay
(§2) In vitro effects of peptide conjugates of the invention were assessed by measuring the induction of cAMP following stimulation of the respective receptor by GIP, GLP1 or analogues of these, as outlined in the invention, using the AlphaSceen® cAMP kit from Perkin-Elmer according to instructions. Briefly, HEK293 cells expressing the human GIP R or GLP-1 R (stable cell lines generated through transfection of the cDNA for human GIP R or GLP-1 and selection of stable clones) were seeded at 30,000 cells/well in 96-well microtiter plates coated with 0.01% poly-L-lysine, and grown for 1 day in culture in 200 μl growth medium (DMEM, 10% FCS, Penicillin (100 IU/ml), Streptomycin (100 μg/ml)). On the day of analysis, growth medium was removed and the cells were washed once with […] Tyrode's buffer (Tyrode's Salts (9.6 g/l), 10 mM HEPES, pH 7.4). […] The Assay buffer was removed and cells are lysed in 80 μl Lysis buffer (0.1% w/v BSA, 5 mM HEPES, 0.3% v/v Tween-20) per well. From each well 10 μl lysed cells was transferred to a 384-well plate and mixed with 15 μl bead-mix (1 Unit/15 μl anti-cAMP Acceptor Beads, 1 Unit/15 μl Donor Beads, and 1 Unit/15 μl Biotinylated cAMP in Assay Buffer). The plates were mixed and incubated in the dark for an hour at room temperature before measuring using an Envision™ plate reader (Perkin-Elmer).
(§3) The resulting cAMP curves were plotted as absolute cAMP concentrations (nM) over log (test compound concentration) and analyzed using the curve fitting program XLfit.
(§4) Parameters calculated to describe both the potency as well as the agonistic activity of each test compound on the receptors were:
(§5) EC50, a concentration resulting in a half-maximal elevation of cAMP levels, reflecting the potency of the test compound.

human GIP R = biological target: T2, human GIP R (Homo sapiens, UniProt P48546); experiment: Human GIP receptor (GIP R) activity assay, cAMP induction (AlphaScreen) in HEK293 cells; format: cell-based; conditions: read-out: hGIP-R cAMP EC50 average value
T2 construct: expressed in transfected cells
T2 sequence (P48546 22-466): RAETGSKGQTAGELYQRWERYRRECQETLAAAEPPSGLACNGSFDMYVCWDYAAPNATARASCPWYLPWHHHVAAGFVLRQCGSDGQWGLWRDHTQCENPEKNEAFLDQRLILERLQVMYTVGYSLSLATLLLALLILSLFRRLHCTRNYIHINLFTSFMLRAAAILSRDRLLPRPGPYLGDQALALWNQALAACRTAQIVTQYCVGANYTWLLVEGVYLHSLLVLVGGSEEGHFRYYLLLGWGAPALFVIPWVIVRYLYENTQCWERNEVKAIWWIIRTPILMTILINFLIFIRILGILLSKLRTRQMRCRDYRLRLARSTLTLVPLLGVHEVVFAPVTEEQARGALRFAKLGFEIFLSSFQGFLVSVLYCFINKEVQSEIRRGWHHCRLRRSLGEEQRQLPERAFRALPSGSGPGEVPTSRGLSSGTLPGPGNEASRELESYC
Experimental: as §1, §2, §3, §4, §5

[1] = Table 2, HEK293 cells expressing human GLP-1 R
[2] = Table 2a, secondary assay study
[3] = Table 2, HEK293 cells expressing human GIP R
[4] = Table 3, most comprehensive data

SMILES	EC50 (human GLP-1 R; [1]) [nM]	EC50 (human GLP-1 R; [2]) [nM]	EC50 (human GIP R; [3]) [nM]	EC50 (human GIP R; [2]) [nM]	EC50 (human GIP R; [4]) [nM]
CC[C@H](C)[C@H](NC(=O)[C@H](CO)NC(=O)[C@H](Cc1ccc(O)cc1)NC(=O)[C@H](CC(=O)O)NC(=O)[C@H](CO)NC(=O)[C@@H](NC(=O)[C@H](Cc1ccccc1)NC(=O)[C@@H](NC(=O)CNC(=O)[C@H](CCC(=O)O)NC(=O)C(C)(C)NC(=O)[C@@H](N)Cc1ccc(O)cc1)[C@@H](C)O)[C@@H](C)O)C(=O)N[C@@H](Cc1ccc(O)cc1)C(=O)N[C@@H](CC(C)C)C(=O)N[C@@H](CC(=O)O)C(=O)N[C@@H](CCCCN)C(=O)N[C@@H](CCCCNC(=O)COCCOCCNC(=O)COCCOCCNC(=O)CCCCCCCCCCCCCCCCC(=O)O)C(=O)N[C@@H](C)C(=O)N[C@@H](CCC(N)=O)C(=O)N[C@@H](CCCNC(=N)N)C(=O)N[C@@H](C)C(=O)N[C@@H](Cc1ccccc1)C(=O)N[C@H](C(=O)N[C@@H](CCC(=O)O)C(=O)N[C@@H](Cc1c[nH]c2ccccc12)C(=O)N[C@@H](CC(C)C)C(=O)N[C@@H](CC(C)C)C(=O)N[C@@H](C)C(=O)N[C@@H](CCC(N)=O)C(=O)NCC(=O)N1CCC[C@H]1C(=O)N[C@@H](CO)C(=O)N[C@@H](CO)C(=O)NCC(=O)N[C@@H](C)C(=O)N1CCC[C@H]1C(=O)N1CCC[C@H]1C(=O)N1CCC[C@H]1C(=O)N[C@@H](CO)C(N)=O)C(C)C [Compound 5] (H-Y[Aib]EGTFTSDYSIYLDKK([AEEA-AEEA-C18 diacid])AQRAFVEWLLAQGPSSGAPPPS-NH2)	0.014	0.014	0.012	0.011	–
CC[C@H](C)[C@H](NC(=O)[C@H](CO)NC(=O)[C@H](Cc1ccc(O)cc1)NC(=O)[C@H](CC(=O)O)NC(=O)[C@H](CO)NC(=O)[C@@H](NC(=O)[C@H](Cc1ccccc1)NC(=O)[C@@H](NC(=O)CNC(=O)[C@H](CCC(=O)O)NC(=O)C(C)(C)NC(=O)[C@@H](N)Cc1ccc(O)cc1)[C@@H](C)O)[C@@H](C)O)C(=O)N[C@@H](Cc1ccc(O)cc1)C(=O)N[C@@H](CC(C)C)C(=O)N[C@@H](CC(=O)O)C(=O)N[C@@H](CCCCN)C(=O)N[C@@H](CCCCNC(=O)COCCOCCNC(=O)COCCOCCNC(=O)COCCOCCNC(=O)CC[C@H](NC(=O)CCCCCCCCCCCCCCCCC(=O)O)C(=O)O)C(=O)N[C@@H](C)C(=O)N[C@@H](CCC(N)=O)C(=O)N[C@@H](CCCNC(=N)N)C(=O)N[C@@H](C)C(=O)N[C@@H](Cc1ccccc1)C(=O)N[C@H](C(=O)N[C@@H](CCC(=O)O)C(=O)N[C@@H](Cc1c[nH]c2ccccc12)C(=O)N[C@@H](CC(C)C)C(=O)N[C@@H](CC(C)C)C(=O)N[C@@H](C)C(=O)N[C@@H](CCC(N)=O)C(=O)NCC(=O)N1CCC[C@H]1C(=O)N[C@@H](CO)C(=O)N[C@@H](CO)C(=O)NCC(=O)N[C@@H](C)C(=O)N1CCC[C@H]1C(=O)N1CCC[C@H]1C(=O)N1CCC[C@H]1C(=O)N[C@@H](CO)C(N)=O)C(C)C [Compound 6]	0.016	–	0.0049	0.005	0.005
CC[C@H](C)[C@H](NC(=O)[C@H](CO)NC(=O)[C@H](Cc1ccc(O)cc1)NC(=O)[C@H](CC(=O)O)NC(=O)[C@H](CO)NC(=O)[C@@H](NC(=O)[C@H](Cc1ccccc1)NC(=O)[C@@H](NC(=O)CNC(=O)[C@H](CCC(=O)O)NC(=O)C(C)(C)NC(=O)[C@@H](N)Cc1ccc(O)cc1)[C@@H](C)O)[C@@H](C)O)C(=O)N[C@@H](Cc1ccc(O)cc1)C(=O)N[C@@H](CC(C)C)C(=O)N[C@@H](CC(=O)O)C(=O)N[C@@H](CCCCN)C(=O)N[C@@H](CCCCNC(=O)COCCOCCNC(=O)COCCOCCNC(=O)[C@H](CN)NC(=O)CCCCCCCCCCCCCCCCC(=O)O)C(=O)N[C@@H](C)C(=O)N[C@@H](CCC(N)=O)C(=O)N[C@@H](CCCNC(=N)N)C(=O)N[C@@H](C)C(=O)N[C@@H](Cc1ccccc1)C(=O)N[C@H](C(=O)N[C@@H](CCC(=O)O)C(=O)N[C@@H](Cc1c[nH]c2ccccc12)C(=O)N[C@@H](CC(C)C)C(=O)N[C@@H](CC(C)C)C(=O)N[C@@H](C)C(=O)N[C@@H](CCC(N)=O)C(=O)NCC(=O)N1CCC[C@H]1C(=O)N[C@@H](CO)C(=O)N[C@@H](CO)C(=O)NCC(=O)N[C@@H](C)C(=O)N1CCC[C@H]1C(=O)N1CCC[C@H]1C(=O)N1CCC[C@H]1C(=O)N[C@@H](CO)C(N)=O)C(C)C [Compound 7] (H-Y[Aib]EGTFTSDYSIYLDKK([AEEA-AEEA-Dap-C18 diacid])AQRAFVEWLLAQGPSSGAPPPS-NH2)	0.012	–	0.011	–	–
CC[C@H](C)[C@H](NC(=O)[C@H](CO)NC(=O)[C@H](Cc1ccc(O)cc1)NC(=O)[C@H](CC(=O)O)NC(=O)[C@H](CO)NC(=O)[C@@H](NC(=O)[C@H](Cc1ccccc1)NC(=O)[C@@H](NC(=O)CNC(=O)[C@H](CCC(=O)O)NC(=O)[C@@H](C)NC(=O)[C@@H](N)Cc1ccc(O)cc1)[C@@H](C)O)[C@@H](C)O)C(=O)N[C@@H](Cc1ccc(O)cc1)C(=O)N[C@@H](CC(C)C)C(=O)N[C@@H](CC(=O)O)C(=O)N[C@@H](CCCCN)C(=O)N[C@@H](CCCCNC(=O)COCCOCCNC(=O)COCCOCCNC(=O)CC[C@H](NC(=O)CCCCCCCCCCCCCCCCC(=O)O)C(=O)O)C(=O)N[C@@H](C)C(=O)N[C@@H](CCC(N)=O)C(=O)N[C@@H](CCCNC(=N)N)C(=O)N[C@@H](C)C(=O)N[C@@H](Cc1ccccc1)C(=O)N[C@H](C(=O)N[C@@H](CCC(=O)O)C(=O)N[C@@H](Cc1c[nH]c2ccccc12)C(=O)N[C@@H](CC(C)C)C(=O)N[C@@H](CC(C)C)C(=O)N[C@@H](C)C(=O)N[C@@H](CCC(N)=O)C(=O)NCC(=O)N1CCC[C@H]1C(=O)N[C@@H](CO)C(=O)N[C@@H](CO)C(=O)NCC(=O)N[C@@H](C)C(=O)N1CCC[C@H]1C(=O)N1CCC[C@H]1C(=O)N1CCC[C@H]1C(=O)N[C@@H](CO)C(N)=O)C(C)C [Compound 9] (H-Y[dA]EGTFTSDYSIYLDKK([AEEA-AEEA-γGlu-C18 diacid])AQRAFVEWLLAQGPSSGAPPPS-NH2)	0.038	0.039	0.0088	0.009	0.009
CC[C@H](C)[C@H](NC(=O)[C@H](CO)NC(=O)[C@H](Cc1ccc(O)cc1)NC(=O)[C@H](CC(=O)O)NC(=O)[C@H](CO)NC(=O)[C@@H](NC(=O)[C@H](Cc1ccccc1)NC(=O)[C@@H](NC(=O)CNC(=O)[C@H](CCC(=O)O)NC(=O)C(C)(C)NC(=O)[C@@H](N)Cc1ccc(O)cc1)[C@@H](C)O)[C@@H](C)O)C(=O)N[C@@H](Cc1ccc(O)cc1)C(=O)N[C@@H](CC(C)C)C(=O)N[C@@H](CCC(=O)O)C(=O)N[C@@H](CCCCN)C(=O)N[C@@H](CCCCNC(=O)COCCOCCNC(=O)COCCOCCNC(=O)CC[C@H](NC(=O)CCCCCCCCCCCCCCCCC(=O)O)C(=O)O)C(=O)N[C@@H](C)C(=O)N[C@@H](C)C(=O)N[C@@H](CCCCN)C(=O)N[C@@H](CCC(=O)O)C(=O)N[C@@H](Cc1ccccc1)C(=O)N[C@H](C(=O)N[C@@H](CCC(=O)O)C(=O)N[C@@H](Cc1c[nH]c2ccccc12)C(=O)N[C@@H](CC(C)C)C(=O)N[C@@H](CC(C)C)C(=O)N[C@@H](CO)C(=O)N[C@@H](C)C(=O)NCC(=O)N1CCC[C@H]1C(=O)N[C@@H](CO)C(=O)N[C@@H](CO)C(=O)NCC(=O)N[C@@H](C)C(=O)N1CCC[C@H]1C(=O)N1CCC[C@H]1C(=O)N1CCC[C@H]1C(=O)N[C@@H](CO)C(N)=O)C(C)C [Compound 10] (H-Y[Aib]EGTFTSDYSIYLEKK([AEEA-AEEA-γGlu-C18 diacid])AAKEFVEWLLSAGPSSGAPPPS-NH2)	0.028	0.029	0.016	0.016	–
